# Results as given in US20220162188A1, “ISOPRENOIDS AND METHODS OF MAKING THEREOF” (NORTH CAROLINA STATE UNIVERSITY, priority 2019, published 2022).
# “Also recorded” adds a separate entry of the source.
# T1: isopentenyl phosphate kinase (IPK) (Thermoplasma acidophilum, UniProt Q9HLX1)
# T1 sequence (Q9HLX1 1-245): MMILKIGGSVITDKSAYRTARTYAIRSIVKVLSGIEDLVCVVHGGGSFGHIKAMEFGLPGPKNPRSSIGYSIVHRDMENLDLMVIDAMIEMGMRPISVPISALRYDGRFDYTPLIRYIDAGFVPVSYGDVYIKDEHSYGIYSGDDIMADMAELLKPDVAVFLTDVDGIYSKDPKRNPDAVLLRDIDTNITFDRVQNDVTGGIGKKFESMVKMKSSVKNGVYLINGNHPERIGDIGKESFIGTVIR
# B1: isopentenyl phosphate kinase (IPK) (Thermoplasma acidophilum DSM 1728) (protein)
# chain: T1 sequence (Q9HLX1 1-245)
# How the values were obtained:
# [1] = target: T1, isopentenyl phosphate kinase (IPK); format: biochemical; details: overnight reaction
# Protocol: Since the substrate scope of IPK has yet to be fully described, here IPK was tested against a wider panel of substrates. The IPK gene from T. acidophilum was codon optimized and subcloned into pET28a. Following expression in E. coli BL21 DE3, the enzyme was purified via metal-chelation affinity chromatography. Next, the substrate specificity of the enzyme was determined in vitro using a panel of synthesized alcohol monophosphates using low resolution mass spectrometry (FIG. 25). The availability of alcohol diphosphate byproducts (FIG. 23) conveniently served as product standards.
# Assay for Initial Activity of Monophosphates with IPK. Fractions from the synthesis of the diphosphates on a 400 μmol scale containing the monophosphates were concentrated in vacuo and resuspended to 5 mg/mL in water. Enzymatic reaction mixtures contained 50 mM Tris (pH 8.0), 2.5 mM MgCl2, 0.05 mM DTT, 1 mM ATP, and 4.2 μg of enzyme in a 200 μL reaction with 40 μL of substrate (1 mg/mL final). A reaction mixture without enzyme was setup as a control. Reactions were incubated overnight at 37° C. and checked by low-resolution LC-MS for diphosphate product formation. Standards from the isolated diphosphates were used to confirm retention time and mass. Reactions with a >10% diphosphate generation as compared to the no enzyme control were selected for kinetic experiments. LC-MS experiments were conducted using a Shimadzu LC-MS 2020 single quadrupole instrument with a Phenomenex Kinetex UPLC C18 column (2.1×50 mm, […], 100 Å pores) column. 5 μL was injected onto and separated using a series of linear gradients developed from 0.1% formic acid in H2O (A) to 0.1% formic acid in acetonitrile (B) at 0.2 mL/min using the following protocol: 0-2.2 min, 95-1% A; 2.21-2.6 min, 1% A; 2.61-2.62 min, 1-95% A; 2.63-3.5 min, 95% A. Products of enzymatic reactions were verified by mass and comparison with diphosphate standards previously synthesized.
# PhoN = assay: Substrate specificity of wild-type PhoN, HR-LCMS; format: biochemical, Shigella flexneri; details: alcohol 100 mM, PhoN 20 μg/mL, ATP 50 mM
# Protocol: Broad substrate specificity of wild-type PhoN. Each commercially available alcohol (100 mM) was tested for activity with purified PhoN (20 μg/mL) and ATP (50 mM). The product mixtures were analyzed by high resolution liquid chromatography mass spectrometry (HR-LCMS) to quantify the conversion of alcohol to mono-phosphate. Quantification was achieved by the addition of an internal standard (either geranyl phosphate or cinnamyl monophosphate) at known fixed concentration. The results are illustrated in FIG. 54 and FIG. 55.
# [2] = target: T1, isopentenyl phosphate kinase (IPK); assay: NADH-coupled kinetic assay of IPK; details: for kcat fold higher than that with IP: relative to natural substrate IP
# Protocol: (§1) The data was fitted to the Michaelis-Menten equation using SigmaPlot, and the kinetic parameters (kcat, Km, kcat/Km) extracted.
# (§2) NADH-Coupled Kinetic Assays. NADH coupled assays were performed with purified enzymes. Reaction progress was monitored by absorbance at 340 nm at 30° C. in a 96-well plate using a Biotek Synergy 4 plate reader (Winooski, Vt.). 200 μL enzymatic mixtures contained 50 mM Tris (pH 8.0), 25 mM KCl, 2.5 mM MgCl2, 0.05 mM DTT, 1 mM ATP, 320 μM NADH, 400 μM phosphoenolpyruvate, 0.5 U pyruvate kinase, 0.7 U lactate dehydrogenase, and various amounts of substrate. Conditions were verified by doubling enzyme and verifying the initial rate was doubled as well.
# (§3) Kinetics of IPK were done with purified enzyme using 0.09 μg of enzyme per well. Serial dilution was used to generate specific concentrations of substrates (3125, 1562, 781, 625, 391, 195, 98, 24, 12, and 3 μM). Each condition was performed in triplicate. Nonlinear regression was fitted using SigmaPlot (Systat Software Inc., San Jose, Calif., USA).
# CpaD = CpaD (Aspergillus oryzae, UniProt F5HN73); assay: Substrate specificity of prenyltransferase CpaD in vitro; format: biochemical; details: pyrophosphate 0.3 mM, cyclic dipeptide 0.25 mM, CpaD 1 mg/mL
# Protocol: Broad substrate specificity of the prenyltransferase CpaD in vitro. Each chemically synthesized pyrophosphate (0.3 mM) and cyclic dipeptide (0.25 mM) were tested for activity with purified CpaD (1 mg/mL). […] The results are illustrated in FIG. 60 and FIG. 61.
# FtmPT1 = FtmPT1 (Aspergillus fumigatus, UniProt Q4WAW7); format: biochemical; details: pyrophosphate 2 mM, cyclic dipeptide 1 mM
# CpaD I329G = CpaD I329G (Aspergillus oryzae, UniProt F5HN73, I329G); assay: Substrate specificity of prenyltransferase mutant CpaD I329G in vitro; format: biochemical; details: pyrophosphate 2 mM, cyclic dipeptide 1 mM, enzyme 1 mg/mL
# Excerpt: Altered substrate specificity of the prenyltransferase mutant CpaD 1329G in vitro. […] The results are illustrated in FIG. 62 and FIG. 63.
# FtmPT1 M364G = FtmPT1 M364G (Aspergillus fumigatus, UniProt Q4WAW7, M364G); details: pyrophosphate 2 mM, cyclic dipeptide 1 mM
# Protocol: Each chemically synthesized pyrophosphate (2 mM) and cyclic dipeptide (1 mM) were tested for activity with purified FtmPT1 (100 mg/mL). […] The substrate (cyclic dipeptide) and product peak areas were determined by HPLC at a detection wavelength of 254 nm, and the conversion was calculated.
# FgaPT2 M328G = FgaPT2 M328G (Aspergillus fumigatus, UniProt Q50EL0, M328G); assay: Substrate specificity of FgaPT2 mutant M328G in vitro; format: biochemical; details: pyrophosphate 3 mM, enzyme 350 μg/mL, Trp 1 mM
# Protocol: Altered substrate specificity of the prenyltransferase FgaPT2 mutant M328G in vitro. Each chemically synthesized pyrophosphate (3 mM) was tested for activity with purified FgaPT2 M328 (350 μg/mL) and Trp (1 mM). […] The results are illustrated in FIG. 58 and FIG. 59.
# FgaPT2 = FgaPT2 (Aspergillus fumigatus, UniProt Q50EL0); assay: Substrate specificity of wild-type prenyltransferase FgaPT2 in vitro; format: biochemical; details: pyrophosphate 3 mM, FgaPT2 200 μg/mL, Trp 1 mM
# Protocol: Broad substrate specificity of the wild-type prenyltransferase FgaPT2 in vitro. Each chemically synthesized pyrophosphate (3 mM) was tested for activity with purified FgaPT2 (200 μg/mL) and Trp (1 mM). The product mixtures were analyzed by HR-LCMS to identify the mass ions consistent with the expected alkylated product. The substrate (Trp) and product peak areas were determined by high performance liquid chromatography (HPLC) at a detection wavelength of 269 nm, and the conversion was calculated. The results are illustrated in FIG. 56 and FIG. 57.
# [3] = system: lycopene production via the DXP pathway; assay: Lycopene colorimetric reporter assay; format: cell-based; details: Fs 0.5 μM; E. coli BL21Tuner(DE3) lycopene reporter strain expressing IPK
# [4] = target: IspA, a farnesyl diphosphate synthase (FPPase) (Escherichia coli, UniProt P22939); details: wild-type IspA, DMAPP as starter unit
# [5] = substrate: C=C(C)CCOP(=O)(O)O; assay: purified protein, by the assay type; details: other: IPK with monophosphorylated substrate, ± SD of the mean, 1 mM ATP, 30° C., pH 8.0
# Protocol: as §1, §2, §3
# [6] = substrate: CC(C)=CCOP(=O)(O)O; assay: purified protein, by the assay type; details: other: IPK with monophosphorylated substrate, ± SD of the mean, 1 mM ATP, 30° C., pH 8.0
# Protocol: as §1, §2, §3
# FgaPT2 M328G, sequence (Q50EL0 whole entry M328G): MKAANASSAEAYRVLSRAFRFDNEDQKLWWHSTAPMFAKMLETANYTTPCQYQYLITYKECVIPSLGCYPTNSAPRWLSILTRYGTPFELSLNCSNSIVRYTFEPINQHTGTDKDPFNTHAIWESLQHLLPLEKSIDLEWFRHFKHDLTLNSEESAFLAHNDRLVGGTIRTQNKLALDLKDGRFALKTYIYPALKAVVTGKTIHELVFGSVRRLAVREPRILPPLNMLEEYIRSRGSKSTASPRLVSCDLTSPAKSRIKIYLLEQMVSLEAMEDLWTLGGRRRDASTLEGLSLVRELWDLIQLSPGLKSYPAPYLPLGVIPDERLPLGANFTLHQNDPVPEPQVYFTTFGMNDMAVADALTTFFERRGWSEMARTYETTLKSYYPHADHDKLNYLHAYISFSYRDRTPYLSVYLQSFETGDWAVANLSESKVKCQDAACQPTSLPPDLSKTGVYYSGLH
# FgaPT2, sequence (Q50EL0 whole entry): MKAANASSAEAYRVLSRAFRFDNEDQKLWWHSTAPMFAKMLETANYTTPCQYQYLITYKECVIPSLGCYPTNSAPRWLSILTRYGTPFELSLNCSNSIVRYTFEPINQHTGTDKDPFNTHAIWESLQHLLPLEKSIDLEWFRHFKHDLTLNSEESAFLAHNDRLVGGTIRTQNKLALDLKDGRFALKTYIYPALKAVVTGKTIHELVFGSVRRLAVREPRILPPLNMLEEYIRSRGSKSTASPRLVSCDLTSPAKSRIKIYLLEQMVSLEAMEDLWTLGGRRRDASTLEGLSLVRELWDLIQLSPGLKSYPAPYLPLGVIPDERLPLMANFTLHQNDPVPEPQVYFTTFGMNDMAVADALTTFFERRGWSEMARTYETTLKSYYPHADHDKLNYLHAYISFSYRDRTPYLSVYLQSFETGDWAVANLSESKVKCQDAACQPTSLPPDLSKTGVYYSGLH
# IspA, a farnesyl diphosphate synthase (FPPase), sequence (P22939 whole entry): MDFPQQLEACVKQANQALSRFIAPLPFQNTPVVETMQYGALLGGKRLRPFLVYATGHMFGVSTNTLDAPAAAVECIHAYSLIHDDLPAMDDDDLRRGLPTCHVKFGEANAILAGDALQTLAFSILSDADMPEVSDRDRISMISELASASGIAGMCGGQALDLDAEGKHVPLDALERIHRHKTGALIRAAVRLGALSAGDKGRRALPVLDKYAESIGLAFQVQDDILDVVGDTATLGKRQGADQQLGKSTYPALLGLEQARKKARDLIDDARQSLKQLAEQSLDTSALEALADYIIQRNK
# FtmPT1 M364G, sequence (Q4WAW7 whole entry M364G): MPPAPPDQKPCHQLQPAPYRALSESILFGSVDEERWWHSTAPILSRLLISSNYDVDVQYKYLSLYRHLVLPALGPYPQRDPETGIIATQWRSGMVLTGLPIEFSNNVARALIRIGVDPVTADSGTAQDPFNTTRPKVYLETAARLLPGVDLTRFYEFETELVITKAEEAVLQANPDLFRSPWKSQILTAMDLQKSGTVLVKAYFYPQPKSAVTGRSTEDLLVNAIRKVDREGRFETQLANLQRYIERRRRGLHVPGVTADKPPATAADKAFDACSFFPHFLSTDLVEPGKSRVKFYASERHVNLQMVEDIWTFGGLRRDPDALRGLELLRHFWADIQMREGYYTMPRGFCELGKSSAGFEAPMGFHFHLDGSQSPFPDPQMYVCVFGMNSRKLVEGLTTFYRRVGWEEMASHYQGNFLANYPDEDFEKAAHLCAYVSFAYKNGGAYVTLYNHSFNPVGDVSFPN
# CpaD I329G, sequence (F5HN73 whole entry I329G): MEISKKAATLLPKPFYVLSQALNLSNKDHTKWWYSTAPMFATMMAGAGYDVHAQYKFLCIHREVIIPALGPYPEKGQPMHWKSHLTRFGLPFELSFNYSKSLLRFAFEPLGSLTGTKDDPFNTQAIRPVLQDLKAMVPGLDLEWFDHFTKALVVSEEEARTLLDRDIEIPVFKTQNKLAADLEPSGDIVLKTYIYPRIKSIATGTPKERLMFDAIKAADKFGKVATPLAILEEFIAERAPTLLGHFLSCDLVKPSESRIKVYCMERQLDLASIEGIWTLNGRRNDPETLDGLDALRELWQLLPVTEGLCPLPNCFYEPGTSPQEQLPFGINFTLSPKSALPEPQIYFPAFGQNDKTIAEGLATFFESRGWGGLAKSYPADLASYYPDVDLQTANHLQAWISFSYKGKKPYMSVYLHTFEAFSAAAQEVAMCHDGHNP
# CpaD, sequence (F5HN73 whole entry, species assumed): as the sequence (F5HN73 whole entry I329G) above, with G329I counted along it
# FtmPT1, sequence (Q4WAW7 whole entry): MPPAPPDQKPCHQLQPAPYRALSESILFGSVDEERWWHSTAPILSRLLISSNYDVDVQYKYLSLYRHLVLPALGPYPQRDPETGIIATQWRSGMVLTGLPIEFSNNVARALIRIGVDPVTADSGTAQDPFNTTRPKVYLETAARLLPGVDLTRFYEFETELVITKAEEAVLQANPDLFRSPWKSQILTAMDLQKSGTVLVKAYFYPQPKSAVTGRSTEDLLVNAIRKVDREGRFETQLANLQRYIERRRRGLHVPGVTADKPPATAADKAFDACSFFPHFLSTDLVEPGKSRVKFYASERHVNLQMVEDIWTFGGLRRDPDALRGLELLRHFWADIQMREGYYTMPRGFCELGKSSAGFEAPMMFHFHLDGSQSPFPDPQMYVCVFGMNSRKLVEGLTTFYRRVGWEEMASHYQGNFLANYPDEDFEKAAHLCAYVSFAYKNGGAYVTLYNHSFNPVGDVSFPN
molecule,measurement,setting,value
"CC(C)=CCC/C(C)=C/COP(=O)(O)O [GP, geranyl monophosphate]","phosphorylation by IPK to the corresponding pyrophosphate, as judged by MS",[1],did not result in detection of the corresponding pyrophosphate
"CC(C)=CCC/C(C)=C\CC/C(C)=C\COP(=O)(O)O [FP, farnesyl monophosphate]","phosphorylation by IPK to the corresponding pyrophosphate, as judged by MS",[1],did not result in detection of the corresponding pyrophosphate
C=C(C)COP(=O)(O)O [Substrate 5],PhoN-catalyzed phosphorylation of alcohol: expected product detected,PhoN,mass ions were detected by HR-LCMS consistent with the expected product
C=CCC(C)OP(=O)(O)O (stereo not shown) [Substrate 2],use as IPK substrate,[2],detectable but kinetically irrelevant
same,CpaD-catalyzed alkylation of cyclic dipeptide: expected product detected,CpaD,products detected by HPLC and confirmed by LR-LCMS
same,PhoN-catalyzed phosphorylation of alcohol: expected product detected,PhoN,mass ions were detected by HR-LCMS consistent with the expected product
same,FtmPT1-catalyzed alkylation of cyclic dipeptide: expected product detected,FtmPT1,products detected by HPLC and confirmed by LR-LCMS
C=C(Br)CCOP(=O)(O)O [Substrate 3],CpaD I329G-catalyzed alkylation of cyclic dipeptide: expected product detected,CpaD I329G,products detected by HPLC and confirmed by LR-LCMS
same,kcat fold higher than that with IP,[2],5.1 fold
same,FtmPT1 M364G-catalyzed alkylation of cyclic dipeptide: expected product detected,FtmPT1 M364G,products detected by HPLC and confirmed by LR-LCMS
same,FgaPT2 M328G-catalyzed alkylation of Trp: expected product detected,FgaPT2 M328G,products detected by HPLC and confirmed by LR-LCMS
same,PhoN-catalyzed phosphorylation of alcohol: expected product detected,PhoN,mass ions were detected by HR-LCMS consistent with the expected product
C=CCC(C)OP(=O)(O)OP(=O)(O)O (stereo not shown) [Substrate 19],CpaD-catalyzed alkylation of cyclic dipeptide: expected product detected,CpaD,products detected by HPLC and confirmed by LR-LCMS
same,PhoN-catalyzed phosphorylation of alcohol: expected product detected,PhoN,mass ions were detected by HR-LCMS consistent with the expected product
same,FgaPT2-catalyzed alkylation of Trp: expected product detected,FgaPT2,mass ions were detected by HR-LCMS consistent with the expected product
same,FtmPT1-catalyzed alkylation of cyclic dipeptide: expected product detected,FtmPT1,products detected by HPLC and confirmed by LR-LCMS
"O=CN(O)CCCP(=O)(O)O [Fs, fosmidomycin]",lycopene production,[3],almost completely inhibited lycopene production
O=P(O)(O)OP(=O)(O)OCc1cccnc1 [Substrate 32],"use as extender unit in place of IPP (GPP analogue by LC-MS), words",[4],did not serve as an extender unit
CCC/C=C\COP(=O)(O)O [Substrate 7],FgaPT2-catalyzed alkylation of Trp: expected product detected,FgaPT2,mass ions were detected by HR-LCMS consistent with the expected product
C=CCCCOP(=O)(O)O [Substrate 6],fold drop in kcat/Km,[2]; between 1 and 6,3 fold
same,FgaPT2-catalyzed alkylation of Trp: expected product detected,FgaPT2,mass ions were detected by HR-LCMS consistent with the expected product
C#CCCCOP(=O)(O)O [Substrate 4],CpaD I329G-catalyzed alkylation of cyclic dipeptide: expected product detected,CpaD I329G,products detected by HPLC and confirmed by LR-LCMS
same,FtmPT1 M364G-catalyzed alkylation of cyclic dipeptide: expected product detected,FtmPT1 M364G,products detected by HPLC and confirmed by LR-LCMS
same,FgaPT2 M328G-catalyzed alkylation of Trp: expected product detected,FgaPT2 M328G,products detected by HPLC and confirmed by LR-LCMS
same,PhoN-catalyzed phosphorylation of alcohol: expected product detected,PhoN,mass ions were detected by HR-LCMS consistent with the expected product
"CC(C)=CCC/C(C)=C\COP(=O)(O)O [NP, neryl monophosphate]","phosphorylation by IPK to the corresponding pyrophosphate, as judged by MS",[1],did not result in detection of the corresponding pyrophosphate
C=CCCOP(=O)(O)O [Substrate 1],CpaD I329G-catalyzed alkylation of cyclic dipeptide: expected product detected,CpaD I329G,products detected by HPLC and confirmed by LR-LCMS
same,kcat fold higher than that with IP,[2],4.25 fold
same,FtmPT1 M364G-catalyzed alkylation of cyclic dipeptide: expected product detected,FtmPT1 M364G,products detected by HPLC and confirmed by LR-LCMS
same,FgaPT2 M328G-catalyzed alkylation of Trp: expected product detected,FgaPT2 M328G,products detected by HPLC and confirmed by LR-LCMS
same,PhoN-catalyzed phosphorylation of alcohol: expected product detected,PhoN,mass ions were detected by HR-LCMS consistent with the expected product
C#CCCOP(=O)(O)O [Substrate 9],PhoN-catalyzed phosphorylation of alcohol: expected product detected,PhoN,mass ions were detected by HR-LCMS consistent with the expected product
CCC/C=C/COP(=O)(O)O [Substrate 8],fold decrease in kcat/Km,[2]; π-bond geometry of 7 switched from Z to E in 8,17 fold
same,FgaPT2-catalyzed alkylation of Trp: expected product detected,FgaPT2,mass ions were detected by HR-LCMS consistent with the expected product
C=CCCCOP(=O)(O)O [Substrate 27],kcat,"[2]; IPK with monophosphorylated substrate, ± SD of the mean",93.1 ± 2.67 s⁻¹
same,Km,"[2]; IPK with monophosphorylated substrate, ± SD of the mean, 1 mM ATP, 30° C.",848 ± 57.9 µM
same,"use as extender unit in place of IPP (GPP analogue by LC-MS), words",[4],not utilized by IspA; also recorded: did not facilitate carbon-carbon bond formation; also recorded: did not serve as an extender unit
B1,Km,[5],27.9 ± 4.37 µM
same,kcat,[5],43.9 ± 1.1 s⁻¹
same,kcat/Km,[5],1.5e+06 M⁻¹ s⁻¹
same,Km,[6],134 ± 38.2 µM
same,kcat,[6],32.7 ± 2.05 s⁻¹
same,kcat/Km,[6],230000 M⁻¹ s⁻¹
